Assay results as given in paper PMC2825274 (PLoS ONE, 2010).
Values after ≈ are worked out from the molar mass of the structure shown. Values joined by “and” are separate entries in the source; they are usually repeats but may differ in a detail not shown here. Identical values can stand only once.

How the values were obtained:
Assay type in all cases: cell-based, influenza A virus
[1] = system: influenza A/California/10/09 (H1N1) (CA10), S31N amantadine-resistant
[2] = system: A/New Caledonia/20/99 (H1N1) V27A (NC V27A)
[3] = system: A/Wisconsin/67/05 (H3N2) S31N (WI S31N)
[4] = system: A/Mississippi/3/01 (H1N1) H274Y (MS H274Y) oseltamivir-resistant
[5] = system: A/Hawaii/21/07 (H1N1) H274Y (HI H274Y)

NC12CC3CC(CC(C3)C1)C2 [Amantadine]
Fold Reduction in EC50 Compared to (A) [1]: 1.8 and 2.0 and 3.2
Fold Reduction in EC50 Compared to (B) [1]: 1.7
Fold Reduction in EC50 Compared to (C) [1]: 1.6
amantadine concentration with significant contribution to the synergy of the TCAD regimen [1]: ≥ 0.32 µg/mL
contribution to the total synergy of the TCAD regimen [1]: 44%
activity as a single agent [2]: no activity
amantadine concentration at which the increase in synergy of the TCAD regimen was observed [2]: 0.32 µg/mL
activity as a single agent [3]: no activity
amantadine concentration at which the increase in synergy of the TCAD regimen was observed [3]: 1 µg/mL
EC50 [4]: 0.060 µg/mL (≈ 0.397 µM)

NC(=O)c1ncn([C@@H]2O[C@H](CO)[C@@H](O)[C@H]2O)n1 [Ribavirin]
Fold Reduction in EC50 Compared to (B) [1]: 1.5
Fold Reduction in EC50 Compared to (C) [1]: 2.2
EC50 [4]: 3.6 µg/mL (≈ 14.7 µM)

Oseltamivir carboxylate
Fold Reduction in EC50 Compared to (B) [1]: 6.5
Fold Reduction in EC50 Compared to (C) [1]: 6.5
EC50 [4]: 73 µg/mL
Fold Reduction in EC50 Compared to (A) [4]: 21
Fold Reduction in EC50 Compared to (B) [4]: >29
Fold Reduction in EC50 Compared to (C) [4]: >29
antiviral activity as a single agent [4]: no antiviral activity
contribution to the total synergy of the TCAD regimen [4]: 76%
fold reduction in susceptibility [4]: 1480 fold
oseltamivir carboxylate concentration from which it contributed to the synergy of the TCAD regimen [4]: ≥ 0.1 µg/mL
Fold Reduction in EC50 Compared to (B) [5]: 3.3
Fold Reduction in EC50 Compared to (C) [5]: 4.2
antiviral activity as a single agent [5]: no antiviral activity
contribution to the total synergy of the TCAD regimen [5]: 83%
fold reduction in susceptibility [5]: 300 fold
oseltamivir carboxylate concentration from which it contributed to the synergy of the TCAD regimen [5]: ≥ 0.32 µg/mL
